From ChEMBL document CHEMBL3751803, “Discovery of an in Vivo Tool to Establish Proof-of-Concept for MAP4K4-Based Antidiabetic Treatment” (ACS Med Chem Lett, 2015)
≈ marks a conversion by molar mass, not a printed value. Values belong to the compound of their own block, whether it stands above or below them.

How the values were obtained:
[1] = Passive permeability in MDCK2 cell with low efflux; format: ADME, cell-based, Canis lupus familiaris, MDCK-II; conditions: dog, MDCK
[2] = Lipophilicity, log D of the compound; format: physicochemical; conditions: octanol/water
[3] = target: T1, Mitogen-activated protein kinase kinase kinase kinase 4 (Homo sapiens, UniProt O95819); assay: Inhibition of recombinant human MAP4K4 catalytic domain in presence of 10 uM ATP (Km) by FRET assay
T1 sequence (O95819 whole entry, the tested form may be a part): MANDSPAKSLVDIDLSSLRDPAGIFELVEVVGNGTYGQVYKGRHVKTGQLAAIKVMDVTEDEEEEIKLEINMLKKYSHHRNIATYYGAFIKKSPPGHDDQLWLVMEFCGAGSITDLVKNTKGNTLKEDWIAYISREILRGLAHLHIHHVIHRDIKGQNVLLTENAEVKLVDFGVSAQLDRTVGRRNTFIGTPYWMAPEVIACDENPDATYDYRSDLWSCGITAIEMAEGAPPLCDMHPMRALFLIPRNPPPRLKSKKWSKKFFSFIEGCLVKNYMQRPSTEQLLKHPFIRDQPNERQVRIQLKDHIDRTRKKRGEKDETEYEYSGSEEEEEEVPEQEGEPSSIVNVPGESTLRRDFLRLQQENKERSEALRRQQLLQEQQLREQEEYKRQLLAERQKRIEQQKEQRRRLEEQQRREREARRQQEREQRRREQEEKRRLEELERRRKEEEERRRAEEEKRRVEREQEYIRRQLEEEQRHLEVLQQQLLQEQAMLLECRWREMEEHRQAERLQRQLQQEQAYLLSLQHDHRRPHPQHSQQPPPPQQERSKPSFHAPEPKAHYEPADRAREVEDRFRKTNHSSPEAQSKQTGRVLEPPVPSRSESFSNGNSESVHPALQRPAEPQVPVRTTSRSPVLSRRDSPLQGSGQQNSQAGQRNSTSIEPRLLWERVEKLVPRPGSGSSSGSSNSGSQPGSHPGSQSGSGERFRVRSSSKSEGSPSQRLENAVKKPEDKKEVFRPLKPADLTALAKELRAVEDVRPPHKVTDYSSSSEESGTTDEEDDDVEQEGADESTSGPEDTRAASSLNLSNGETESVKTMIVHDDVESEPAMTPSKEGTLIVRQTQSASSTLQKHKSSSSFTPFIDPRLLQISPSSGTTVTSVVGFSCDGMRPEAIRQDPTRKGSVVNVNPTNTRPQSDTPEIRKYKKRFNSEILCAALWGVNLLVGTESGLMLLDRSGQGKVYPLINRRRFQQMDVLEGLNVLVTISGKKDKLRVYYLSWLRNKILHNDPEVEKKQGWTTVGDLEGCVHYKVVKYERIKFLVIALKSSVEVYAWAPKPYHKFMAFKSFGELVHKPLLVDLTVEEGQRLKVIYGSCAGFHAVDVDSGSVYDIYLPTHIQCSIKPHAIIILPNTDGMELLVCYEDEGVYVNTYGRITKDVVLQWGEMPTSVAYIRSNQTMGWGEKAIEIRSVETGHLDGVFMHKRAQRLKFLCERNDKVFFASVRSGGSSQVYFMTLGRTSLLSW

[4] = target: T1, Mitogen-activated protein kinase kinase kinase kinase 4; assay: Inhibition of human MAP4K4 transfected in 293 MSR cells assessed as inhibition of phosphorylation of traf2 at ser/thr residue by ELISA; format: cell-based
[5] = target: T1, Mitogen-activated protein kinase kinase kinase kinase 4; assay: Inhibition of recombinant human MAP4K4 catalytic domain in presence of 1 mM ATP by FRET assay
[6] = Solubility of compound at pH 1.2; format: physicochemical; conditions: buffer
[7] = Solubility of compound at pH 6.5; format: physicochemical; conditions: buffer
Liver microsome = assay: Unbound intrinsic clearance in human liver microsomes; format: ADME
CYP3A4 [8] = target: T2, CYP3A4 (Homo sapiens, UniProt P08684); assay: Inhibition of CYP3A4 (unknown origin) at 3 uM; format: ADME
T2 sequence (P08684 whole entry): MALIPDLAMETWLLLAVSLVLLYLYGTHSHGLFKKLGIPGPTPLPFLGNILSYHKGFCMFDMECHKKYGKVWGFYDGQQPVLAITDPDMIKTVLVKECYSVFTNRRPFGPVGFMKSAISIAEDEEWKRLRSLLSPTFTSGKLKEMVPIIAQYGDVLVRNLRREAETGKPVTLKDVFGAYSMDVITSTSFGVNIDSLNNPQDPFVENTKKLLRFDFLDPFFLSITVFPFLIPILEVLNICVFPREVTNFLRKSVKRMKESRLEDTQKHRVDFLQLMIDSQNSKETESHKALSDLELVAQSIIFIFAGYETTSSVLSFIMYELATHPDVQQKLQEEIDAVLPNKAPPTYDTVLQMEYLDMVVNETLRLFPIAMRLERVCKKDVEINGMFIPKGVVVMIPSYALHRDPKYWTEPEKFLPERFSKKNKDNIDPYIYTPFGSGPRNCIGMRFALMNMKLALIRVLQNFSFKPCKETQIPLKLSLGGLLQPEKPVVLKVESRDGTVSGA

CYP2D6 = CYP2D6 (Homo sapiens, UniProt P10635); assay: Inhibition of CYP2D6 (unknown origin) at 3 uM; format: ADME
Chain of CYP2D6 (P10635 whole entry): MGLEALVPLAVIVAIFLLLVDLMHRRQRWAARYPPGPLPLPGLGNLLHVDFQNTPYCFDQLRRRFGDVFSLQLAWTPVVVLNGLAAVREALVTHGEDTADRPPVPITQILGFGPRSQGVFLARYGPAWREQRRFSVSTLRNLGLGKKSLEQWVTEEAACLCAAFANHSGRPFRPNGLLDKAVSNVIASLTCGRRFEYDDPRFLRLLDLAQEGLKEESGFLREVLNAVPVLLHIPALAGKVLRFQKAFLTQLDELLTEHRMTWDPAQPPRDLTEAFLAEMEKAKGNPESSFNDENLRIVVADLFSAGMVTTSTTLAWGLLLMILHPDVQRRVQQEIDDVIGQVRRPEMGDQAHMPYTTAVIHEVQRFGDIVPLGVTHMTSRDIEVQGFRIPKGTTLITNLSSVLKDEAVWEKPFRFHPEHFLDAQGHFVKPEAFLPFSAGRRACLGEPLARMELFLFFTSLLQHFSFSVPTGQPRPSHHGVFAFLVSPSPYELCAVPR

CYP2C8 = target: T3, CYP2C8 (Homo sapiens, UniProt P10632); assay: Inhibition of CYP2C8 (unknown origin) at 3 uM; format: ADME
T3 sequence (P10632 whole entry): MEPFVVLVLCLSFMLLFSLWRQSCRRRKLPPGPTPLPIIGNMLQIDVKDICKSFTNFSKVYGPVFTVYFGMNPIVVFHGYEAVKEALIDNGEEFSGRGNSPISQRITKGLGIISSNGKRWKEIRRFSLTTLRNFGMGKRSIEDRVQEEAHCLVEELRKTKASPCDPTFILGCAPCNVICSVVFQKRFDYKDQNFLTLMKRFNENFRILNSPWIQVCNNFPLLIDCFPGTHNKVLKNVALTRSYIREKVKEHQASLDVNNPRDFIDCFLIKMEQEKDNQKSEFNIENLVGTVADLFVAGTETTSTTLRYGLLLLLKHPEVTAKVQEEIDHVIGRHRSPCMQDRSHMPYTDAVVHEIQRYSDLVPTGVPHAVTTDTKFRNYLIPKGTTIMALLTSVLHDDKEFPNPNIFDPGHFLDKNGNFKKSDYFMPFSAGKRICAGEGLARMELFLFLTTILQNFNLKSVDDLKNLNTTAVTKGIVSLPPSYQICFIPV

CYP2C9 = CYP2C9 (Homo sapiens, UniProt P11712); assay: Inhibition of CYP2C9 (unknown origin) at 3 uM; format: ADME
Chain of CYP2C9 (P11712 whole entry): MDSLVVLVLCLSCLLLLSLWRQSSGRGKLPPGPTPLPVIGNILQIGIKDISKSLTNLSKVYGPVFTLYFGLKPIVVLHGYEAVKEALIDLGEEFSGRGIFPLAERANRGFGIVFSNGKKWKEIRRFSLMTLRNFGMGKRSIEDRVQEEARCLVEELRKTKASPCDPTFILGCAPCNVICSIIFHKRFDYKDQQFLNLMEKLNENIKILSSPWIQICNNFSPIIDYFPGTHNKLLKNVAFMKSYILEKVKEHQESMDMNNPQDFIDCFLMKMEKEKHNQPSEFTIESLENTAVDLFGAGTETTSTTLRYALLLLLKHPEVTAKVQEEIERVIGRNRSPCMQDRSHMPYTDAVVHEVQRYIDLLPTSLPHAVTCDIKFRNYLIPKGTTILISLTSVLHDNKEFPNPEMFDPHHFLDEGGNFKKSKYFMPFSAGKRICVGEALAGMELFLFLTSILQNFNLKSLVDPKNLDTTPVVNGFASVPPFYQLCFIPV

CYP1A2 = target: T4, CYP1A2 (Homo sapiens, UniProt P05177); assay: Inhibition of CYP1A2 (unknown origin) at 3 uM; format: ADME
T4 sequence (P05177 whole entry): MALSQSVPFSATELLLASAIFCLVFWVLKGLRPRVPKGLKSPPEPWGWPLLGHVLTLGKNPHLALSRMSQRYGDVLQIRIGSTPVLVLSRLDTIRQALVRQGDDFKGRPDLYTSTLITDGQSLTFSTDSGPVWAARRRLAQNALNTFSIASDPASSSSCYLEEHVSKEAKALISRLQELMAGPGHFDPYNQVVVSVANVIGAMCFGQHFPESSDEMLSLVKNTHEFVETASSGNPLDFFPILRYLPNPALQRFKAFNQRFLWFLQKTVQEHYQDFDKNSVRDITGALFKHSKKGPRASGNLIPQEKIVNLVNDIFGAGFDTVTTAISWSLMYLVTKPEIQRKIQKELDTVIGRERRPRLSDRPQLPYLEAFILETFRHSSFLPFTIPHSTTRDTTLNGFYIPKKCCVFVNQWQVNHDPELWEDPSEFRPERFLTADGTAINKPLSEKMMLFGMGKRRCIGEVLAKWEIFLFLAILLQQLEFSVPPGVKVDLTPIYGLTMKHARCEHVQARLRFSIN

[9] = target: Voltage-gated inwardly rectifying potassium channel KCNH2 (Homo sapiens, UniProt Q12809); assay: Inhibition of human ERG transfected in HEK293 cells; format: cell-based
Chain of Voltage-gated inwardly rectifying potassium channel KCNH2 (Q12809 whole entry): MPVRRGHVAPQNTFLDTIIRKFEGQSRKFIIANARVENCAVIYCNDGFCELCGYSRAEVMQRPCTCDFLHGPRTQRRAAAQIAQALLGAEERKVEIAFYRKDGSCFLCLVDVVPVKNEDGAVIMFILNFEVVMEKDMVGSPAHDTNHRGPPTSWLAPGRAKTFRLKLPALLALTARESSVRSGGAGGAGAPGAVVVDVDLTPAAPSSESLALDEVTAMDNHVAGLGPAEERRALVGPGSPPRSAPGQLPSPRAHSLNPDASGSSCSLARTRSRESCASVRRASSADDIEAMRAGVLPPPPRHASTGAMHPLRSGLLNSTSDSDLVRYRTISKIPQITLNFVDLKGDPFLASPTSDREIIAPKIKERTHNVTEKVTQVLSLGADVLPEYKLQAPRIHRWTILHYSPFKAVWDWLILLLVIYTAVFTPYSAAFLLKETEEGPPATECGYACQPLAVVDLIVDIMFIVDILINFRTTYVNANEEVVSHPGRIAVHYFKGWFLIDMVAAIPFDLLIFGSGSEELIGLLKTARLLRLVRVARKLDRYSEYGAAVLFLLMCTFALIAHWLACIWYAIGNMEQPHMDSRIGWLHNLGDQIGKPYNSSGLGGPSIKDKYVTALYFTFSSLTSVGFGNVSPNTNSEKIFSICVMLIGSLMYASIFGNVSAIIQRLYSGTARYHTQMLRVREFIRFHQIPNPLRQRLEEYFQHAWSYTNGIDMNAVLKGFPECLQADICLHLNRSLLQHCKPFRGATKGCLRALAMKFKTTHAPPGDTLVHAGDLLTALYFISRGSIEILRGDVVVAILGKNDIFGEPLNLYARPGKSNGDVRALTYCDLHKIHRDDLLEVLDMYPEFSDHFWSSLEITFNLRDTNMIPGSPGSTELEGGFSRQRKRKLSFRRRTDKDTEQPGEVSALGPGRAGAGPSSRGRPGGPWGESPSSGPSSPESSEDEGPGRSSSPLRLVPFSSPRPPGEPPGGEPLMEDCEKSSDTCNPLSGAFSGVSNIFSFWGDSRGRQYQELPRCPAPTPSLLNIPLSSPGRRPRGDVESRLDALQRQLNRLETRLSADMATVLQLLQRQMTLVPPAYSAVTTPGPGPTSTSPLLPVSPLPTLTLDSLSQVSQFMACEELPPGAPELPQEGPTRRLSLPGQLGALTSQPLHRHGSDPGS

Epithelial cell = assay: Cytotoxicity against human liver epithelial cells
Salmonella typhimurium = assay: Mutagenicity in Salmonella typhimurium by Ames test; format: toxicity, organism-based; conditions: salmonella enterica subsp. enterica serovar typhimurium
CYP3A4 [10] = target: T2, CYP3A4; assay: Time dependent inhibition of CYP3A4 (unknown origin) using midazolam as substrate at 30 uM; format: ADME; conditions: probe midazolam
CYP3A4 [11] = target: T2, CYP3A4; assay: Time dependent inhibition of CYP3A4 (unknown origin) using midazolam as substrate at 60 uM; format: ADME; conditions: probe midazolam
[12] = target: TRAF2 and NCK-interacting protein kinase (Homo sapiens, UniProt Q9UKE5); assay: Inhibition of TNIK (unknown origin) in presence of ATP (Km)
Misshapen-like kinase 1 = Misshapen-like kinase 1 (Homo sapiens, UniProt Q8N4C8); assay: Inhibition of MINK (unknown origin) in presence of ATP (Km)
Cytochrome P450 1A2 = target: T5, Cytochrome P450 1A2 (Homo sapiens, UniProt P05177); assay: Inhibition of CYP1A2 (unknown origin); format: ADME
T5 sequence (P05177 whole entry): T4 sequence (P05177 whole entry)

[13] = Fraction unbound in mouse plasma at 10 mg/kg, po; format: ADME, organism-based
Mus musculus [14] = assay: Inhibition of LPS-induced TNF-alpha level in C57/Bl6 mouse blood at 15 mg/kg, po administered 30 mins prior to LPS challenge measured after […]; format: functional; conditions: C57/BI6, Blood
Plasma = assay: Plasma concentration in C57/Bl6 mouse at 15 mg/kg, po; format: ADME, organism-based, C57/BI6; conditions: in vivo
Mus musculus [15] = assay: Decrease in blood glucose level in ob/ob mouse at 10 mg/kg, po bid for 4 weeks; format: functional; conditions: 672 h

Papp [1]: 15.6 ×10⁻⁶ cm/s
SMILES: Cn1c(-c2ccc(Cl)cc2)cnc1-c1ccc(C(N)=O)cc1

Papp [1]: 8.7 ×10⁻⁶ cm/s
SMILES: NC(=O)c1ccc(-c2cncc(-c3ccc(Cl)cc3)c2)cc1

logD [2]: 3.6 | IC50 [3]: 94 nM | IC50 [4]: 6300 nM | IC50 [5]: > 10000 nM
SMILES: NC(=O)c1ccc(-c2ncc(-c3ccc(Cl)cc3)o2)cc1

IC50 [3]: 248 nM | IC50 [4]: > 30000 nM | IC50 [5]: > 10000 nM
SMILES: NC(=O)c1ccc(-n2cc(-c3ccc(Cl)cc3)cn2)cc1

Papp [1]: 4.4 ×10⁻⁶ cm/s
SMILES: NC(=O)c1ccc(-c2cc(-c3ccc(Cl)cc3)ccn2)cc1

More lines, now with the values behind:

SMILES: NC(=O)c1ccc(-c2cn(-c3ccc(Cl)cc3)cn2)cc1
Papp [1]: 2.9 ×10⁻⁶ cm/s

SMILES: COc1ccc(-c2cncc(-c3ccc(C(N)=O)cc3)c2)cc1
Papp [1]: 8.7 ×10⁻⁶ cm/s

SMILES: NC(=O)c1ccc(-c2cncc(-c3ccc(OC4CC4)cc3)c2)cc1
Papp [1]: 3.5 ×10⁻⁶ cm/s

SMILES: Nc1ncc(-c2cnc(N)c(-c3ccc(Cl)cc3)c2)cn1
solubility ([6]; read-out: solubility): 3960 µg/mL (≈ 13.3 mM) | solubility [7]: 2 µg/mL (≈ 0.00672 mM) | CL free (Liver microsome): 13 mL/min/kg | inhibition at 3 µM (CYP3A4 [8]): < 15% | inhibition at 3 µM (CYP2D6): < 15% | inhibition at 3 µM (CYP2C8): < 15% | inhibition at 3 µM (CYP2C9): < 15% | inhibition at 3 µM (CYP1A2): < 15% | IC50 [9]: > 10000 nM | IC50 (Epithelial cell): > 300000 nM | Activity (Salmonella typhimurium): Non-toxic | inhibition at 30 µM (CYP3A4 [10]): 8% | inhibition at 60 µM (CYP3A4 [11]): 24%

SMILES: Nc1ncc(-c2cc[nH]c(=O)c2)cc1-c1ccc(Cl)cc1
Papp [1]: 15.7 ×10⁻⁶ cm/s

SMILES: Nc1ccc(-c2cnc(N)c(-c3ccc(Cl)cc3)c2)cn1
IC50 [3]: 3.7 nM | IC50 [4]: 160 nM | Papp [1]: 7.1 ×10⁻⁶ cm/s | solubility [6]: 13000 µg/mL (≈ 43.8 mM) | solubility [7]: 5800 µg/mL (≈ 19.5 mM) | IC50 [12]: 15 nM | IC50 (Misshapen-like kinase 1): 8 nM | CL free (Liver microsome): 89 mL/min/kg | inhibition at 3 µM (CYP3A4 [8]): < 15% | inhibition at 3 µM (CYP2D6): < 15% | inhibition at 3 µM (CYP2C8): < 15% | inhibition at 3 µM (CYP2C9): < 15% | IC50 (Cytochrome P450 1A2): 3000 nM | IC50 [9]: 1800 nM | IC50 (Epithelial cell): > 119000 nM | Activity (Salmonella typhimurium): Toxic | fraction unbound [13]: 0.038 | inhibition in vivo at 15 mg/kg (Mus musculus [14]): > 90% | Cp (Plasma): 439 ng/mL | inhibition in vivo at 10 mg/kg (Mus musculus [15]): 44% | inhibition at 30 µM (CYP3A4 [10]): 54% | inhibition at 60 µM (CYP3A4 [11]): 61%

SMILES: CS(=O)(=O)c1ccc(-c2cc(-c3ccc(O)cc3)cnc2N)cc1
Papp [1]: 17.2 ×10⁻⁶ cm/s

SMILES: CS(=O)(=O)c1ccc(-c2cc(-c3ccc(C(N)=O)cc3)cnc2N)cc1
Papp [1]: 6.7 ×10⁻⁶ cm/s
